No end group written: not given here.
Assays:
Test in all cases: biochemical
[1] = target: DRB1*1101 (Homo sapiens, UniProt P01903+P01911, A100R/A169T/A87E/I96F/K41T/L162R/M171V/P40S/Q125H/Q178H/Q39Y/Q99D/R42S/S66Y/T262R/V115G/W38E); settings: Binding affinity DRB1 *1101
[2] = target: DRB5*0101 (Homo sapiens, UniProt P01903+Q30154); settings: Binding affinity DRB5 *0101
[3] = target: DRB1*0802 (Homo sapiens, UniProt P01903+P01911, A100R/A103L/A169T/F76Y/H45Y/I96F/K41T/L162R/M171V/P40S/Q125H/Q178H/Q39Y/Q99D/R218S/R42G/S66Y/V115G/W38E); assay type: binding
[4] = target: DRB1*1201 (Homo sapiens, UniProt P01903+P01911, A100R/A169T/D57E/D86V/F55L/H45Y/K41T/L162R/M171V/P40S/Q125H/Q178H/Q39Y/Q99D/R42G/S66L/T262R/V114A/V67L/W38E/Y59H/Y61H/Y89S); assay type: binding
[5] = target: DRB1*0901 (Homo sapiens, UniProt P01903+P01911, A100R/A103E/D57H/D86V/F55Y/F60I/F76Y/I96F/K127E/L162R/M171V/P40D/Q125H/Q99R/R33Q/R42F/S133A/S66N/T210M/V115G/W38K/Y107V/Y59G/Y89S); assay type: binding
[6] = target: DR7 (DRB1*0701) (Homo sapiens, UniProt P01903+P01911, A100R/A102G/A103Q/D57E/D86V/E43K/F76Y/K127E/L162R/M171V/P40G/Q125H/Q99D/R33Q/R42Y/R54Q/S133A/S66F/T210M/V115G/Y107V/Y59L/Y89S); assay type: binding
[7] = target: DRB1*1501 (Homo sapiens, UniProt P01903+P01911); assay type: binding

Sequence of DRB1*1101 (P01903 26-254 limits assumed, other chains not shown): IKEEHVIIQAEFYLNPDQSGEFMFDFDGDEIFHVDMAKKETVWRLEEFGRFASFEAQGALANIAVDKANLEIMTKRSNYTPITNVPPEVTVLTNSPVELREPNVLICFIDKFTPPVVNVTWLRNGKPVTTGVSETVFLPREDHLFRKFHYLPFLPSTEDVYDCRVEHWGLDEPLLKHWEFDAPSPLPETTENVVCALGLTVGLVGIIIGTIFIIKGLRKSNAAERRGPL

Compound | IC50 [1] | IC50 [2] | IC50 [3] | IC50 [4] | IC50 [5] | IC50 [6] | IC50 [7]
CC[C@H](C)[C@H](NC(=O)[C@H](CO)NC(=O)[C@H](CC(C)C)NC(=O)[C@@H](NC(=O)[C@H](CC(C)C)NC(=O)[C@H](CC(=O)O)NC(=O)[C@H](Cc1c[nH]c2ccccc12)NC(=O)[C@@H](N)CCSC)C(C)C)C(=O)N[C@@H](C)C(=O)N[C@@H](CC(C)C)C(=O)N[C@@H](CO)C(=O)N[C@H](C(=O)NCC(=O)N[C@@H](CS)C(=O)N[C@H](C(=O)O)[C@@H](C)O)C(C)C [Peptide 68.0001] | > 20 µM | > 20 µM | > 20 µM | 4.58 µM |  |  | 
CC[C@H](C)[C@H](NC(=O)[C@H](CO)NC(=O)[C@@H](NC(=O)CNC(=O)[C@H](CCC(=O)O)NC(=O)[C@@H]1CCCN1)C(C)C)C(=O)N[C@@H](Cc1c[nH]c2ccccc12)C(=O)N[C@@H](CC(N)=O)C(=O)N1CCC[C@H]1C(=O)N[C@H](C(=O)N[C@@H](CC(C)C)C(=O)N[C@@H](CC(C)C)C(=O)N[C@@H](Cc1c[nH]c2ccccc12)C(=O)N[C@@H](CCC(N)=O)C(=O)N1CCC[C@H]1C(=O)O)[C@@H](C)CC [Peptide 68.0033] | > 20 µM | > 20 µM | > 20 µM | 7.97 µM | > 20 µM |  | 
CC[C@H](C)[C@H](NC(=O)[C@@H](N)CC(C)C)C(=O)N[C@@H](CCSC)C(=O)N[C@@H](Cc1ccc(O)cc1)C(=O)N[C@@H](CO)C(=O)N[C@@H](C)C(=O)N[C@@H](Cc1c[nH]cn1)C(=O)N[C@@H](CC(=O)O)C(=O)N[C@H](C(=O)N[C@H](C(=O)N[C@H](C(=O)N[C@@H](CO)C(=O)NCC(=O)N[C@@H](CC(C)C)C(=O)N[C@@H](CCC(N)=O)C(=O)O)C(C)C)[C@@H](C)O)[C@@H](C)O [Peptide 68.0050] | > 20 µM | > 20 µM | > 20 µM | > 20 µM |  |  | 
CSCC[C@H](NC(=O)[C@H](CCC(N)=O)NC(=O)[C@H](CC(C)C)NC(=O)CNC(=O)[C@H](CO)NC(=O)[C@@H](NC(=O)[C@@H](NC(=O)[C@@H](NC(=O)[C@@H](N)CC(=O)O)[C@@H](C)O)[C@@H](C)O)C(C)C)C(=O)N[C@@H](C)C(=O)N[C@@H](CC(C)C)C(=O)N[C@@H](CC(=O)O)C(=O)N[C@H](C(=O)N[C@@H](Cc1ccc(O)cc1)C(=O)N[C@@H](CC(N)=O)C(=O)O)C(C)C [Peptide 68.0051] | > 20 µM | > 20 µM | > 20 µM | 0.712 µM |  |  | 
CC[C@H](C)[C@H](NC(=O)[C@@H](NC(=O)[C@@H](N)CO)C(C)C)C(=O)N[C@@H](CC(C)C)C(=O)N[C@@H](CC(C)C)C(=O)NCC(=O)N[C@@H](CCCNC(=N)N)C(=O)N[C@@H](Cc1c[nH]cn1)C(=O)N[C@@H](CO)C(=O)N[C@@H](CC(C)C)C(=O)N[C@@H](Cc1ccccc1)C(=O)N[C@@H](Cc1c[nH]cn1)C(=O)N1CCC[C@H]1C(=O)N[C@@H](CCC(=O)O)C(=O)N[C@@H](CC(=O)O)C(=O)O [Peptide 68.0067] |  |  |  | 0.091 µM |  | > 20 µM | 
CC[C@H](C)[C@H](NC(=O)CNC(=O)[C@H](CCC(N)=O)NC(=O)[C@H](CC(C)C)NC(=O)[C@@H](NC(=O)CNC(=O)[C@H](CC(N)=O)NC(=O)[C@H](CS)NC(=O)[C@@H](NC(=O)[C@H](CC(C)C)NC(=O)[C@@H]1CCCN1C(=O)CN)C(C)C)C(C)C)C(=O)N[C@H](C(=O)N[C@@H](CO)C(=O)N[C@@H](Cc1c[nH]c2ccccc12)C(=O)O)[C@@H](C)O [Peptide 68.0080] |  |  |  | 1.88 µM | > 20 µM |  | 
CC(C)C[C@H](NC(=O)CNC(=O)[C@H](Cc1ccccc1)NC(=O)[C@H](CCC(=O)O)NC(=O)[C@H](CCCCN)NC(=O)[C@@H](N)Cc1c[nH]c2ccccc12)C(=O)N[C@@H](CC(=O)O)C(=O)N[C@@H](CO)C(=O)N[C@H](C(=O)N[C@@H](CCC(=O)O)C(=O)N[C@@H](CC(C)C)C(=O)N[C@@H](C)C(=O)N[C@@H](Cc1c[nH]cn1)C(=O)N[C@@H](Cc1ccc(O)cc1)C(=O)N[C@@H](CC(=O)O)C(=O)O)C(C)C [Peptide 68.0088] |  | > 20 µM |  | > 20 µM |  |  | > 20 µM
CC[C@H](C)[C@H](NC(=O)[C@H](CO)NC(=O)[C@H](CO)NC(=O)[C@H](CC(=O)O)NC(=O)[C@H](C)NC(=O)[C@H](CC(N)=O)NC(=O)[C@@H](NC(=O)[C@H](Cc1ccc(O)cc1)NC(=O)[C@H](C)NC(=O)[C@@H](NC(=O)CN)C(C)C)[C@@H](C)CC)C(=O)N[C@@H](CCC(=O)O)C(=O)NCC(=O)N[C@@H](CC(N)=O)C(=O)N[C@@H](Cc1ccc(O)cc1)C(=O)O [Peptide 68.0110] | > 20 µM | > 20 µM | > 20 µM | 5.49 µM |  |  | 
CSCC[C@H](NC(=O)[C@H](CC(C)C)NC(=O)[C@@H]1CCCN1C(=O)[C@@H](NC(=O)[C@H](CS)NC(=O)[C@H](CC(=O)O)NC(=O)[C@@H](NC(=O)[C@H](CCCNC(=N)N)NC(=O)[C@H](CC(C)C)NC(=O)[C@@H](NC(=O)[C@H](Cc1ccc(O)cc1)NC(=O)[C@@H](N)CC(N)=O)[C@@H](C)O)C(C)C)[C@@H](C)O)C(=O)N[C@@H](Cc1ccc(O)cc1)C(=O)N[C@@H](CO)C(=O)N[C@@H](CC(C)C)C(=O)O [Peptide 68.0112] |  | > 20 µM |  | 0.594 µM | > 20 µM | > 20 µM | 
CC[C@H](C)[C@H](NC(=O)[C@H](CO)NC(=O)[C@H](CC(N)=O)NC(=O)[C@H](C)NC(=O)[C@H](CC(C)C)NC(=O)[C@H](CCC(=O)O)NC(=O)[C@H](Cc1ccccc1)NC(=O)[C@@H](N)C(C)C)C(=O)N[C@H](C(=O)N[C@@H](CC(C)C)C(=O)N1CCC[C@H]1C(=O)N[C@@H](Cc1ccccc1)C(=O)N[C@@H](CC(=O)O)C(=O)N[C@@H](CS)C(=O)N[C@@H](CCCNC(=N)N)C(=O)O)C(C)C [Peptide 68.0124] |  |  | > 20 µM | 0.525 µM |  |  | 
CC[C@H](C)[C@H](NC(=O)[C@H](CCC(=O)O)NC(=O)[C@H](CC(N)=O)NC(=O)CNC(=O)[C@H](CC(=O)O)NC(=O)[C@H](CCC(=O)O)NC(=O)[C@H](CC(N)=O)NC(=O)[C@@H](NC(=O)[C@@H](NC(=O)[C@H](CO)NC(=O)[C@@H](NC(=O)[C@@H](N)Cc1ccc(O)cc1)[C@@H](C)CC)[C@@H](C)CC)[C@@H](C)CC)C(=O)N[C@@H](Cc1ccccc1)C(=O)N[C@@H](CC(N)=O)C(=O)N[C@H](C(=O)O)[C@@H](C)O [Peptide 68.0165] | > 20 µM | > 20 µM | > 20 µM | > 20 µM | > 20 µM | > 20 µM | 
CC[C@H](C)[C@H](NC(=O)[C@H](CO)NC(=O)[C@H](CO)NC(=O)[C@H](CC(=O)O)NC(=O)[C@H](C)NC(=O)[C@H](CC(N)=O)NC(=O)[C@@H](NC(=O)[C@H](Cc1ccc(O)cc1)NC(=O)[C@H](C)NC(=O)[C@@H](N)C(C)C)[C@@H](C)CC)C(=O)N[C@@H](CCC(=O)O)C(=O)NCC(=O)N[C@@H](CC(N)=O)C(=O)N[C@@H](Cc1ccc(O)cc1)C(=O)N[C@H](C(=O)O)[C@@H](C)O [Peptide 68.0177] | > 20 µM | > 20 µM | > 20 µM | 8.25 µM |  |  | > 20 µM
EDFFKLERDMKINCS [Peptide 68.0167] |  |  |  | > 20 µM | > 20 µM |  | > 20 µM
GKVFRGNKVKNAQLA [Peptide 68.0096] |  |  |  | > 20 µM | > 20 µM |  | 
IGYYDAQKLLEKMGG [Peptide 68.0103] | > 20 µM |  |  | > 20 µM | > 20 µM | > 20 µM | 
LTELYFEKGEYFVEM [Peptide 68.0153] | > 20 µM |  |  | 12.7 µM | > 20 µM |  | > 20 µM
PRSLQCVSLHLLSND [Peptide 68.0016] |  | > 20 µM |  | 3.86 µM | > 20 µM |  | 

Reference: patent publication US9340577B2, “HLA binding motifs and peptides and their uses” (priority 1992, dated 2016)
